A word on the CC50: it is the concentration at which the toxic effect on the cells reaches its halfway point. Low values mean harm at low concentration, high ones better tolerance by the cells.

For 71 compounds, CC50 results are on record in paper PMC6792352, “Limited Chemical Structural Diversity Found to Modulate Thyroid Hormone Receptor in the Tox21 Chemical Library” (Environmental Health Perspectives, 2019).

SMILES strings stand for the structures. Counter-ions that a name gives are not always drawn. Positions of bridges follow the written chain, without caps; N, C: chain ends. Non-standard residues stand in square brackets, D forms with d. Residues, ends and D or L forms follow the SMILES beside them. Orn = NCCC[C@H](N)C(=O)O; Mpa = O=C(O)CCS Some results are limits rather than exact numbers.

This series is described as follows: in vitro. The following applies: rat, gh3-tre-luc cells.

In the case of `COc1c(C)c2c(c(O)c1C/C=C(\C)CCC(=O)OCCN1CCOCC1)C(=O)OC2` [Mycophenolate mofetil], half-maximal cytotoxicity (AC50 (uM) modified / 1000) (CC50 at 24 h) was put at 1.07 µM. This lies in the single-digit micromolar range.
Take `CCOP(=O)(O)N(c1ccc(SC)c(C)c1)C(C)C` [Fenamiphos]: the CC50 at 24 h (AC50 (uM) modified / 1000, Tox21_110001=Tox21_400081, viability, 1 nM T3 present, 24 h) is above 90 µM.
On to `ClCc1cccnc1` [3-(Chloromethyl)pyridine hydrochloride], for which the CC50 at 24 h (AC50 (uM) modified / 1000) was above 90 µM.
Still for that read-out and setting: the same measure for `O=C1CCCC=CCCCCCCCCCC1` [5-Cyclohexadecen-1-one]: 74.1 µM; for `COC(=O)Nc1nc2ccc(C(=O)c3ccccc3)cc2[nH]1` [Mebendazole]: 0.337 µM.
The same measure, in the same setting: under `C=CCCCCCCCCO` [9-Decen-1-ol] stands above 90 µM; under `CN1CCN(c2cc3c(nn2)Oc2ccccc2N3C)CC1` [Pipofezine], above 50 µM; under `CC(CO)c1ccccc1` (stereo not drawn) [2-Phenylpropan-1-ol], above 90 µM.
`CCO[Si](CC)(OCC)OCC` [Ethyltriethoxysilane] registered a CC50 at 24 h (AC50 (uM) modified / 1000) above 90 µM.
As for `CCOc1ccc(C[C@H]2NC(=O)CCSSC[C@@H](C(=O)N3CCC[C@H]3C(=O)N[C@@H](CCCN)C(=O)NCC(N)=O)NC(=O)[C@H](CC(N)=O)NC(=O)[C@H]([C@@H](C)O)NC(=O)[C@H]([C@@H](C)CC)NC2=O)cc1` [Atosiban] ([Mpa][dY](Et)ITNCP[Orn]G-NH2; disulfide 1-6), the CC50 at 24 h (AC50 (uM) modified / 1000) is above 50 µM.
`Cn1c(N)nc2c3cccnc3ccc21` [2-Amino-3-methyl-3H-imidazo[4,5-f]quinoline]: the midpoint of cytotoxicity (AC50 (uM) modified / 1000, Tox21_110001=Tox21_200693, viability, 1 nM T3 present, 24 h), the CC50 at 24 h, lay at 36.1 µM.
In turn, `CCCC(=O)Cl` [Butyryl chloride] gave a half-maximal cytotoxic concentration (CC50) at 24 h (AC50 (uM) modified / 1000, Tox21_110001=Tox21_200294, viability, 1 nM T3 present, 24 h) above 90 µM.
`Nc1ccc(Cl)c(N)c1` [4-Chloro-1,3-diaminobenzene]: the half-maximal cytotoxic concentration (CC50) at 24 h (AC50 (uM) modified / 1000) was above 90 µM.
For the compound `CSc1ccc(C=O)cc1` [4-(Methylthio)benzaldehyde], the CC50 at 24 h (AC50 (uM) modified / 1000) is above 90 µM.
`C[C@]12CC[C@@H]3c4ccc(O)cc4CC[C@H]3[C@@H]1CC[C@H]2O` [17alpha-Estradiol]: the cytotoxic concentration (CC50) at 24 h (AC50 (uM) modified / 1000) was above 90 µM.
In the case of `Clc1ccc(COC(Cn2ccnc2)c2ccc(Cl)cc2Cl)c(Cl)c1` (stereo not drawn) [Miconazole], the cytotoxic concentration (CC50) at 24 h (AC50 (uM) modified / 1000) was determined as 15 µM.
Consider `CCCCN(CCCC)C(=S)S` [Sodium dibutylcarbamodithioate], for which, for the setting “AC50 (uM) modified / 1000”, the CC50 at 24 h is above 90 µM.
On to `CC(=O)Nc1ccc(C)cc1C` [N-(2,4-Dimethylphenyl)acetamide], for which, where the note is “AC50 (uM) modified / 1000”, the CC50 at 24 h is above 90 µM.
`CN(C)C(Cc1ccccc1)c1ccccc1` (stereo not drawn) [N,N-Dimethyl-1,2-diphenylethanamine] returned a cytotoxic concentration (CC50) at 24 h (AC50 (uM) modified / 1000, Tox21_110001=Tox21_112703, viability, 1 nM T3 present, 24 h) above 50 µM.
The compound `Nc1ccc(S(=O)(=O)O)cc1` [Sodium sulfanilate] came in with a cytotoxic concentration (CC50) at 24 h (AC50 (uM) modified / 1000) above 90 µM.
On the same count and under the same terms, the same measure for `CC(O)C#CC(C)O` (stereo not drawn) [Hex-3-yne-2,5-diol]: 50.2 µM; for `CC1C2CC(CC2C2CCCC(O)C2)C1(C)C` (stereo not drawn) [3-(5,5,6-Trimethylbicyclo[2.2.1]hept-2-yl)cyclohexanol]: 54.6 µM; for `CCCCCCCCCCCC(=O)OCC(O)CO` (stereo not drawn) [1-Monolaurin]: above 90 µM.
Regarding `CC(C)(C)c1ccc(-c2ccc(C(C)(C)C)cc2)cc1` [4,4'-Di-tert-butylbiphenyl], where the note is “AC50 (uM) modified / 1000”, the cytotoxic concentration (CC50) at 24 h is above 90 µM.
The same measure, in the same setting: under `CCCCC1=NC2(CCCC2)C(=O)N1Cc1ccc(-c2ccccc2-c2nnn[nH]2)cc1` [Irbesartan] stands above 50 µM.
Take `CC(=O)CC(C)=O` [2,4-Pentanedione]: the CC50 at 24 h (AC50 (uM) modified / 1000) was above 100 µM.
On to `C[C@]12CC[C@@H]3c4ccc(O)cc4CC[C@H]3[C@@H]1C[C@@H](O)[C@@H]2O` [Estriol], for which the CC50 at 24 h (AC50 (uM) modified / 1000) was above 90 µM.
With `C=C(C)C(=O)OCCOCCOCCOC(=O)C(=C)C` [Triethylene glycol dimethacrylate], where the note is “AC50 (uM) modified / 1000”, the half-maximal cytotoxic concentration (CC50) at 24 h is above 90 µM.
Under “AC50 (uM) modified / 1000”, `OCC1(CO)COC(C(Cl)(Cl)Cl)OC1` [Penthrichloral] showed a cytotoxic concentration (CC50) at 24 h above 50 µM.
On to `C=CC(=C)CCC=C(C)C` [Myrcene], for which the CC50 at 24 h (AC50 (uM) modified / 1000) is above 90 µM.
As to `CCOc1ccc(NC(=O)CC(C)=O)cc1` [N-(4-Ethoxyphenyl)-3-oxobutanamide], for the setting “AC50 (uM) modified / 1000”, the CC50 at 24 h was above 90 µM.
For `O=C1C=C2C=C[C@@H]3C[C@@]2(O1)[C@H]1CCCCN31` [Securinine], it took 15.3 µM to reach half-maximal cytotoxicity (AC50 (uM) modified / 1000) (CC50 at 24 h).
For the setting “AC50 (uM) modified / 1000”, `O=CNc1ccccc1` [Formanilide] came in with a cytotoxic concentration (CC50) at 24 h above 90 µM.
Under “AC50 (uM) modified / 1000”, `CCN(CC)c1ccc(C(=O)c2ccccc2C(=O)O)c(O)c1` [2-[4-(Diethylamino)-2-hydroxybenzoyl]benzoic acid] gave a CC50 at 24 h above 90 µM.
Same read-out and setting: the same measure for `NC(CCC(=O)O)C(=O)O` (racemic) [DL-Glutamic acid monohydrate]: above 80 µM.
The same measure, in the same setting: the same measure for `O=C(O)C1C(C(=O)O)[C@@]2(Cl)C(Cl)=C(Cl)[C@]1(Cl)C2(Cl)Cl` (stereo partly drawn) [Chlorendic acid]: above 90 µM; for `CC(C)(C)CCCCCC(=O)O` [Neodecanoic acid]: above 90 µM; for `Cc1ncc(CO)c(CO)c1O` [Pyridoxine]: above 50 µM.
Where the note is “AC50 (uM) modified / 1000”, `CCN(Cc1cccc(S(=O)(=O)O)c1)c1ccccc1` [3-((Ethylphenylamino)methyl)benzenesulfonic acid] yielded a CC50 at 24 h above 90 µM.
For `NCCc1cc(O)c(O)cc1O` [Oxidopamine hydrochloride], under “AC50 (uM) modified / 1000, Tox21_110001=Tox21_111324, viability, 1 nM T3 present, 24 h”, the cytotoxic concentration (CC50) at 24 h was determined as 45.2 µM.
On to `CN(C)CCc1c[nH]c2ccc(C[C@H]3COC(=O)N3)cc12` [Zolmitriptan], for which the 50% cytotoxic concentration (CC50) at 24 h (AC50 (uM) modified / 1000) was above 50 µM.
Same read-out and setting: under `Cc1cc(=O)oc2cc(N(C)C)ccc12` [7-(Dimethylamino)-4-methylcoumarin] stands above 90 µM; under `O=C(N/N=C/c1ccc([N+](=O)[O-])o1)c1cc([N+](=O)[O-])cc([N+](=O)[O-])c1O` [Nifursol], 32.5 µM.
Still for that read-out and setting: the same measure for `O=C(O[C@@H]1C[C@@H]2C[C@H]3C[C@H](C1)N2CC3=O)c1c[nH]c2ccccc12` [Dolasetron mesylate]: 37.3 µM; for `O=C(NC(=O)c1c(F)cccc1F)Nc1cc(Cl)c(Oc2ncc(C(F)(F)F)cc2Cl)c(Cl)c1` [Chlorfluazuron]: 71.4 µM.
In the case of `O=S(=O)(O)CCS` [Sodium 2-mercaptoethanesulfonate], the half-maximal cytotoxic concentration (CC50) at 24 h (AC50 (uM) modified / 1000) was above 90 µM.
On to `C=CC(C)(CCC=C(C)C)OC(C)=O` (stereo not drawn) [Linalyl acetate], for which the CC50 at 24 h (AC50 (uM) modified / 1000) is above 90 µM.
`[O-][n+]1ccccc1SSc1cccc[n+]1[O-]` [Dipyrithione] had a half-maximal cytotoxic concentration (CC50) at 24 h (AC50 (uM) modified / 1000) of 0.205 µM.
Under “AC50 (uM) modified / 1000”, `Cc1cc(C2CCCCC2)n(O)c(=O)c1` [Ciclopirox olamine] showed a 50% cytotoxic concentration (CC50) at 24 h of 1.9 µM.
In the case of `CC(C)C=O` [2-Methylpropanal], the half-maximal cytotoxic concentration (CC50) at 24 h (AC50 (uM) modified / 1000) was above 90 µM.
For the setting “AC50 (uM) modified / 1000”, `CCc1ccc(O)c(OC)c1` [4-Ethyl-2-methoxyphenol] displayed a CC50 at 24 h above 90 µM.
In turn, `C=CCOc1ccc(CC(=O)O)cc1Cl` [Alclofenac] gave a CC50 at 24 h (AC50 (uM) modified / 1000) above 50 µM.
Consider `N=C(N/N=C/c1ccc(Cl)cc1)N/N=C/c1ccc(Cl)cc1` [Robenidine], for which the CC50 at 24 h (AC50 (uM) modified / 1000) came out at 46.1 µM.
Consider `CCCCC1C(=O)NC(=O)N(C2CCCCC2)C1=O` (stereo not drawn) [Bucolome], for which the 50% cytotoxic concentration (CC50) at 24 h (AC50 (uM) modified / 1000, Tox21_110001=Tox21_113339, viability, 1 nM T3 present, 24 h) is above 50 µM.
Turning to `CNC(C)C(O)c1ccc(O)cc1` (stereo not drawn) [1-(4-Hydroxyphenyl)-2-methyl-2-methylaminoethanol hydrochloride], the CC50 at 24 h (AC50 (uM) modified / 1000) was above 50 µM.
The same measure, in the same setting: under `CC(C)(CCl)c1ccccc1` [Neophyl chloride] stands above 90 µM.
In turn, `COc1cc(Cl)ccc1Cl` [2,5-Dichloroanisole] returned a CC50 at 24 h (AC50 (uM) modified / 1000) above 90 µM.
The compound `CCCCC/C=C\C/C=C\C/C=C\CCCCC(=O)O` [Gamolenic acid] gave a CC50 at 24 h (AC50 (uM) modified / 1000) above 50 µM.
On the same count and under the same terms, under `NCCc1cc[nH]n1` [Betazole hydrochloride] stands above 20 µM.
Consider `CCN(CC)C(=O)C(Cl)=C(C)OP(=O)(OC)OC` [Phosphamidon], for which the 50% cytotoxic concentration (CC50) at 24 h reads like this: (AC50 (uM) modified / 1000, Tox21_110001=Tox21_112409, viability, 1 nM T3 present, 24 h) above 50 µM; (AC50 (uM) modified / 1000, Tox21_110001=Tox21_202100, viability, 1 nM T3 present, 24 h) above 90 µM.
`CC(=O)c1ccc(OCC(=O)N2CCCCC2)cc1` [4'-Piperidinylcarbonylmethoxyacetophenone] yielded a CC50 at 24 h (AC50 (uM) modified / 1000) above 50 µM.
`NNC(=O)c1cccnc1` [Nicotinic acid hydrazide] showed a CC50 at 24 h (AC50 (uM) modified / 1000, Tox21_110001=Tox21_200666, viability, 1 nM T3 present, 24 h) above 90 µM.
As to `OCCN(CCO)c1nc(N2CCCCC2)c2nc(N(CCO)CCO)nc(N3CCCCC3)c2n1` [Dipyridamole], the CC50 at 24 h (AC50 (uM) modified / 1000) is above 50 µM.
The compound `COC(=O)/C=C\C(=O)O` [2-Butenedioic acid (2Z)-, monomethyl ester] gave a cytotoxic concentration (CC50) at 24 h (AC50 (uM) modified / 1000) above 90 µM.
Consider `NC(=O)CF` [2-Fluoroacetamide], for which the cytotoxic concentration (CC50) at 24 h (AC50 (uM) modified / 1000, Tox21_110001=Tox21_301297, viability, 1 nM T3 present, 24 h) was above 90 µM.
`C=CC(=O)OCCO` [2-Hydroxyethyl acrylate] displayed a cytotoxic concentration (CC50) at 24 h (AC50 (uM) modified / 1000, Tox21_110001=Tox21_201430, viability, 1 nM T3 present, 24 h) above 90 µM.
On to `NC(=O)c1cc[n+](CC2=C(C(=O)[O-])N3C(=O)[C@@H](NC(=O)Cc4cccs4)[C@H]3SC2)cc1` [Cefalonium], for which the CC50 at 24 h (AC50 (uM) modified / 1000) is above 20 µM.
On the same count and under the same terms, under `C=CCn1cc[n+](C)c1` [1-Allyl-3-methylimidazolium chloride] stands above 90 µM; under `Cc1c(C(=O)c2c[nH]n(C)c2=O)ccc(S(C)(=O)=O)c1C1=NOCC1` [Topramezone], above 40 µM; under `CN1CCCC1` [N-Methylpyrrolidine], above 90 µM.
Still for that read-out and setting: the same measure for `O=S(=O)(O)c1ccc(N=Nc2c(O)ccc3ccccc23)cc1` [C.I. Acid Orange 7]: 44.3 µM.
